Results: patent US20230033195A1, “METHODS AND COMPOSITIONS FOR IMPROVING COGNITIVE FUNCTION” (THE JOHNS HOPKINS UNIVERSITY, priority 2011, published 2023)
Read-outs that look alike come from different tables or passages of the source.

Tests used:
[1] = cited from earlier work
[2] = tested on: aMCI subjects; assay: neuropsychological tests outside the scanner; format: in vivo, human; details: 125 mg twice a day for two weeks, vs placebo
Experimental: A within-subjects trial of 8 weeks duration, involving 17 amnestic MCI (aMCI) subjects and 17 age-matched controls with a low dose treatment of levetiracetam is conducted. During the course of the study, each aMCI subject receives both drug and placebo treatments separately in two periods of two weeks each, with the order of treatments among different aMCI subjects counterbalanced (see FIG. 7). Age-matched control subjects treated with placebo serve as a further control. Cognitive testing and fMRI imaging data are obtained from the subjects after each two week period of drug/placebo treatment. All participants undergo neuropsychological evaluation at the time of assessment for treatment efficacy (Visits 1 and 2), as well as at the Baseline Visit. The evaluation occurs outside of the scanner and includes the Buschke Selective Reminding Test (Buschke and Fuld, 1974) and the Verbal Paired Associates subtest, the Logical Memory subtest, the Visual Reproduction subtest of the Wechsler Memory Scale-Revised (WMS-R) (Wechsler, 1997), and the Benton Visual Retention Test, as these tasks are particularly sensitive to medial temporal lobe function and early memory problems (Marquis et al., 2002 and Masur et al., 1994). Additionally, subjects are asked to complete tests of more general cognitive function such as tests to assess general mental status, executive function, attention and general naming ability. All neuropsychological tests are administered by a trained research assistant during a 60-minute session. As the three neuropsychological assessments in this study occur within a time period of 8 weeks, different versions of the neuropsychological tests are used to minimize test specific practice effects. Breaks are provided to the subject as needed.

[3] = tested on: aged-impaired (AI) rats; assay: eight-arm Radial Arm Maze (RAM) task with one-hour delay, spatial memory retention; format: in vivo, rat; details: for average no. of errors ± SEM: one-hour delay, vehicle 2.00 ± 0.42
Experimental: FIG. 3 depicts the effects of administering levetiracetam on the spatial memory retention of ten aged-impaired rats (AI) in an eight-arm Radial Arm Maze (RAM) test. Six treatment conditions were employed: vehicle control, levetiracetam (1.25 mg/kg), levetiracetam (2.5 mg/kg), levetiracetam (5 mg/kg), levetiracetam (10 mg/kg) and levetiracetam (20 mg/kg). In the RAM task used, there was a one-hour delay between presentation of a subset of arms (5 arms available and 3 arms blocked) and completion of the eight-arm win-shift task (eight arms available). Rats were pre-treated 30 - 40 minutes before daily trials with a one-time drug/control treatment. The number of errors made by the rats after the delay was used as a measure of spatial memory retention. Errors were defined as instances when rats entered an arm from which food had already been retrieved in the pre-delay component of the trial or when rats re-visited an arm in the post-delay session that had already been visited. Paired t-tests were used to compare the number of errors between different doses of levetiracetam and vehicle control.
The effects of levetiracetam on the spatial memory retention of aged-impaired (AI) rats were assessed in a Radial Arm Maze (RAM) behavioral task using vehicle control and five different dosage levels of levetiracetam (1.25 mg/kg/day, 2.5 mg/kg/day, 5 mg/kg/day, 10 mg/kg/day and 20 mg/kg/day). RAM behavioral tasks were preformed on ten AI rats. All six treatment conditions were tested on all ten rats, as described above for the MWM test.
The RAM apparatus used consisted of eight equidistantly-spaced arms. An elevated maze arm (7 cm width x 75 cm length) projected from each facet of an octagonal center platform (30 cm diameter, 51.5 cm height). Clear side walls on the arms were 10 cm high and were angled at 65° to form a trough. A food well (4 cm diameter, 2 cm deep) was located at the distal end of each arm. Froot Loops™ (Kellogg Company) were used as rewards. Blocks constructed of Plexiglas™ (30 cm height x 12 cm width) could be positioned to prevent entry to any arm. Numerous extra maze cues surrounding the apparatus were also provided.
The AI rats were initially subjected to a pre-training test (Chappell et al. Neuropharmacology 37: 481-487, 1998). The pre-training test consisted of a habituation phase (4 days), a training phase on the standard win-shift task (18 days) and another training phase (14 days) in which a brief delay was imposed between presentation of a subset of arms designated by the experimenter (e.g., 5 arms available and 3 arms blocked) and completion of the eight-arm win-shift task (i.e., with all eight arms available).
In the habituation phase, rats were familiarized to the maze for an 8-minute session on four consecutive days. In each of these sessions food rewards were scattered on the RAM, initially on the center platform and arms and then progressively confined to the arms. After this habituation phase, a standard training protocol was used, in which a food pellet was located at the end of each arm. Rats received one trial each day for 18 days. Each daily trial terminated when all eight food pellets had been obtained or when either 16 choices were made or 15 minutes had elapsed. After completion of this training phase, a second training phase was carried out in which the memory demand was increased by imposing a brief delay during the trial. At the beginning of each trial, three arms of the eight-arm maze were blocked. Rats were allowed to obtain food on the five arms to which access was permitted during this initial 'information phase' of the trial. Rats were then removed from the maze for 60 seconds, during which time the barriers on the maze were removed, thus allowing access to all eight arms. Rats were then placed back onto the center platform and allowed to obtain the remaining food rewards during this 'retention test' phase of the trial. The identity and configuration of the blocked arms varied across trials. […]

## CC[C@@H](C(N)=O)N1CCCC1=O [levetiracetam, (2S)-2-(2-oxopyrrolidin-1-yl) butanamide]
[1]; after oral administration
  absorption: rapidly and almost completely absorbed
[1]; expected in elderly due to decreased renal function
  plasma half-life: 9 to 10 h
[1]; following oral administration
  time of peak plasma concentrations: about 1 hour
[1]; in vivo
  plasma half-life: approximately 7 ± 1 hour
[1]; multiple twice-daily dosing
  time to steady state: 2 days
[1]; oral administration
  effect of food on bioavailability: not affected by food
[2]
  Benton Visual Rentention Test performance: fail to rescue performance
  Buschke Selective Reminding Test - Delayed Recall performance: fail to rescue performance
  Verbal Paired Associates Test - Delayed Recall performance: fail to rescue performance
  Verbal Paired Associates Test - Recognition performance: fail to rescue performance
[3]; 5 mg/kg/day i.p.
  average no. of errors ± SEM: 0.75 ± 0.32
[3]; 5 mg/kg/day, t(9) = 2.18, p = 0.057
  memory performance relative to vehicle control: significantly improved memory performance
[3]; 10 mg/kg/day i.p.
  average no. of errors ± SEM: 0.80 ± 0.27
[3]; 10 mg/kg/day, t(9) = 2.37, p = 0.042
  memory performance relative to vehicle control: significantly improved memory performance
[3]; levetiracetam 20 mg/kg
  performance of AI rats in the radial maze task: fails to improve the performace
[3]; levetiracetam i.p. 1.25 mg/kg
  effective in reducing the number of errors, on its own: not
[3]; levetiracetam i.p. 2.5 mg/kg
  effective in reducing the number of errors, on its own: not
[3]; levetiracetam i.p. 5-10 mg/kg
  effective in reducing the number of errors, on its own: effective
